Reference: PMC5917092, “Fine-Tuned Enzymatic Hydrolysis of Organosolv Pretreated Forest Materials for the Efficient Production of Cellobiose” (Frontiers in Chemistry, 2018)
“Also recorded” adds a separate entry of the source.

Legend:
TtCBH6 = assay: Kinetics and inhibition of TtCBH6 by mono/oligosaccharides with MUG2 as substrate (Lineweaver-Burk); type: biochemical, Thermothelomyces thermophila; conditions: for Inhibitory effect on TtCBH6 (in words): activity on MUG2, inhibitor 5 and 10 mM
Method: The release of methyl-umbelliferyl was followed by measuring the absorbance at […]. The inhibition of CBHs by specific mono/oligosaccharides was determined by estimating the enzymatic activity on MUG2 in presence of different inhibitor concentrations (5 and 10 mM). Kinetic analysis of inhibition was carried out on xylose (X1), xylobiose (X2), xylotriose (X3), mannose (M1), mannobiose (M2), mannotriose (M3), glucose (G1), cellobiose (G2), and xylosyl-cellobiose (XC). Lineweaver-Burk plots were drawn to determine Km, Vmax, and inhibition constant (Ki) values.

TtCBH7 = TtCBH7 (Thermothelomyces thermophilus, UniProt G2Q665); assay: Kinetics and inhibition of TtCBH7 by mono/oligosaccharides with MUG2 as substrate (Lineweaver-Burk); type: biochemical, Thermothelomyces thermophila; conditions: for Inhibitory effect on TtCBH7 (in words): activity on MUG2, inhibitor 5 and 10 mM; for Kmapp: TtCBH7, substrate MUG2, in the presence of 10 mM inhibitor
Method: The release of methyl-umbelliferyl was followed by measuring the absorbance at A350. The inhibition of CBHs by specific mono/oligosaccharides was determined by estimating the enzymatic activity on MUG2 in presence of different inhibitor concentrations (5 and 10 mM). Kinetic analysis of inhibition was carried out on xylose (X1), xylobiose (X2), xylotriose (X3), mannose (M1), mannobiose (M2), mannotriose (M3), glucose (G1), cellobiose (G2), and xylosyl-cellobiose (XC). Lineweaver–Burk plots were drawn to determine Km, Vmax, and inhibition constant (Ki) values.
Figure 4 Inhibition studies of TtCBH7 by glucan, xylan, and mannan mono- and oligo-saccharides. Absorbance at 355 nm was measured after 30 min incubation with MUG2 at concentrations ranging from 0.1 to 2 mM, at 45°C, pH 5.0.

[1] = TtCBH6, substrate MUG2, inhibitor 5 mM (Km app)
[2] = TtCBH6, substrate MUG2, inhibitor 10 mM (Km app)
[3] = TtCBH7, substrate MUG2, inhibitor 5 mM (Km app)
[4] = TtCBH7, substrate MUG2, inhibitor 10 mM (Km app)
[5] = TtCBH7, substrate MUG2, inhibitor 10 mM

Chain of TtCBH7 (G2Q665 entry or part of it): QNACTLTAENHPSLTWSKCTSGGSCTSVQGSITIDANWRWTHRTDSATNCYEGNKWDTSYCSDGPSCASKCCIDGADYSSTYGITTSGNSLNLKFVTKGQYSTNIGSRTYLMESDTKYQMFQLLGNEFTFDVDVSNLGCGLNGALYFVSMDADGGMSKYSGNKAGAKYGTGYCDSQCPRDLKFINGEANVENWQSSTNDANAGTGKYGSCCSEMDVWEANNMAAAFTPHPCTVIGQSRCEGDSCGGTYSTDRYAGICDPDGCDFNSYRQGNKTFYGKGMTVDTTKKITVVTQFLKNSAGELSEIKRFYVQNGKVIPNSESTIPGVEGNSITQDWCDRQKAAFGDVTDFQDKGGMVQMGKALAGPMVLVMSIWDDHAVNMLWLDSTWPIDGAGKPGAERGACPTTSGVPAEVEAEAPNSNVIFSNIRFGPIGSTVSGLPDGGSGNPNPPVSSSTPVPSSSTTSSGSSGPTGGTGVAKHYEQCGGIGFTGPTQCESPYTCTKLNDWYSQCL

Row | Compound | Km/Km^app (TtCBH6; [1]) [µM] | Km/Km^app (TtCBH6; [2]) [µM] | Km/Km^app (TtCBH7; [3]) [µM] | Km/Km^app (TtCBH7; [4]) [µM] | Inhibitory effect on TtCBH7 (in words) (TtCBH7) | Kmapp (TtCBH7) [mM] | Ki (TtCBH7; [5]) [mM] | Inhibitory effect on TtCBH6 (in words) (TtCBH6) | Km/Km^app (TtCBH6; TtCBH6, substrate MUG2, no inhibitor (Km), pH 5.0, 45°C) [µM] | Km (TtCBH7; TtCBH7, absence of any inhibitor) [µM] | Km/Km^app (TtCBH7; TtCBH7, substrate MUG2, no inhibitor (Km), pH 5.0, 45°C) [µM] | Ki (TtCBH7; TtCBH7, substrate MUG2, inhibitor 5 mM) [mM]
1 | OC1OC[C@@H](O[C@@H]2OC[C@@H](O[C@@H]3OC[C@@H](O)[C@H](O)[C@H]3O)[C@H](O)[C@H]2O)[C@H](O)[C@H]1O (some centres unmarked) [Xylotriose, xylotriose] | 0.42 | 0.46 | 0.77 | 0.95 | very weak inhibitory effect |  |  |  |  |  |  | 
2 | OC1OC[C@@H](O[C@@H]2OC[C@@H](O)[C@H](O)[C@H]2O)[C@H](O)[C@H]1O (some centres unmarked) [Xylobiose, xylobiose] | 0.44 | 0.41 | 0.81 | 1.17 |  | 1.17 | 33.3 |  |  |  |  | 
3 | xylosyl-cellobiose | 0.43 | 0.48 | 0.99 | 1.01 |  |  |  |  |  |  |  | 
4 | mannotriose | 0.41 | 0.44 | 0.88 | 0.98 | very weak inhibitory effect |  |  |  |  |  |  | 
5 | OC[C@H]1OC(O)[C@H](O)[C@@H](O)[C@@H]1O (some centres unmarked) [Glucose, glucose] | 0.39 | 0.41 | 1.00 | 1.58 |  | 1.58 | 13.2 | no inhibitory effect |  |  |  | 
6 | Cc1cc(=O)oc2cc(O[C@@H]3O[C@H](CO)[C@@H](O[C@@H]4O[C@H](CO)[C@@H](O)[C@H](O)[C@H]4O)[C@H](O)[C@H]3O)ccc12 [MUG2, 4-methyl-umbelliferyl-β-cellobiose] |  |  |  |  |  |  |  |  | 0.42 | 900 | 0.90 | 
7 | OC[C@H]1O[C@@H](O[C@H]2[C@H](O)[C@H](O)C(O)O[C@@H]2CO)[C@@H](O)[C@@H](O)[C@@H]1O (some centres unmarked) [Mannobiose, mannobiose] | 0.38 | 0.35 | 0.91 | 1.04 |  | 1.04 |  |  |  |  |  | 
8 | O=C[C@H](O)[C@@H](O)[C@H](O[C@@H]1O[C@H](CO)[C@@H](O)[C@H](O)[C@H]1O)[C@H](O)CO [Cellobiose, cellobiose] | 0.40 | 0.45 | 4.04 | 6.54 | strong inhibitor; also recorded: strongly inhibited | 6.54 | 1.59 | no inhibitory effect |  |  |  | 1.43
